Drawing on patent US20240043384A1, “INHIBITORS OF PU.1 FOR THE TREATMENT OF DISEASE” (Board of Regents, The University of Texas System, priority 2021, published 2024), this text covers IC50 for 32 compounds.

Bounds are passed on as bounds.

The test system of this assay is THP-1 CD14. The experiment in a line: THP-1 CD14 Screening Assay. The assay is classed as cell-based. To be noted: THP-1 cells treated with PMA and compound (5-point 10-fold dilution), human CD14 ELISA on media. The method, then: THP-1 CD14 Screening Assay Protocol:
5×10^4 THP-1 cells were plated per well in a tissue culture-treated 96-well plate. At the time of plating, cells were treated with a final concentration of […] PMA and 0.04% DMSO vehicle, concominant with compounds in a 5-point 10-fold dilution per compound. Cells were treated with PMA and DMSO as a control for differentiation without compound treatment, and with only DMSO as a control for no differentiation and no compound treatment. 500 nM IACS-71432 was added as a control compound across all assay plates.
After incubation at 37° C./5% CO2 for 72 hr, media was collected from the cells and the screening assay was performed using the commercially-available human CD14 SimpleStep ELISA kit from Abcam, according to the following protocol: • 1) ELISA kits were taken out to equilibrate to rt. • 2) Following the protocol listed in the kit, standards were prepared as 1:1 dilutions from 2 ng/ml. • 3) Following the protocol listed in the kit, antibody cocktail was prepared (the volume is contingent on the number of wells required). • 4) 50 μl of standards were added to the appropriate wells, thoroughly mizing the standards before adding to each well. • 5) 25 μl of Sample Diluent (from kit) was added to all sample wells. • 6) Cell plates were centrifuged for 5 min at 300 rcf, with slow acceleration and slow deceleration. • 7) 25 μl of media from cell plates was transferred to assay plates containing standards. • 8) 50 μl of antibody cocktail was added to all of the wells, standards and samples. • 9) Assay plates were sealed tightly and incubated on the plate shaker at 400 rpm for 1 hr at rt. • 10) Wash buffer was prepared following the protocol listed in the kit. • 11) After the hour incubation, assay plates were washed 5 times using 200 μl wash buffer per well per wash. • 12) 100 μl of TMB substrate was added to each well in the dark and incubated on the shaker for 3-4.min, at which point color development was monitored to ensure a robust signal for detection but to avoid oversaturation of signal, for no longer than 10 min. • 13) The absorbance at 607 nm was read on a Perkin Elmer Envision plate reader. • 14) Data was processed using Microsoft Excel and GraphPad Prism.
(ELISA stands for enzyme-linked immunosorbent assay.)

As a reminder, the IC50 is the concentration at which inhibition is half-maximal. A higher IC50 goes with lower potency.

With `O=S(=O)(NCc1ccncc1)c1ccc(-c2ccc3cccnc3c2)cc1` [Example 52, N-(pyridin-4-ylmethyl)-4-(quinolin-7-yl)benzenesulfonamide], the IC50 (Homo sapiens, THP-1, 72 h) is under 5 nM.

With `O=S(=O)(NCc1ccncc1)c1ccc(-c2ccc3c(c2)OCCO3)cc1` [Example 55, 4-(2,3-dihydrobenzo[b]-[1,4]dioxin-6-yl)-N-(pyridin-4-ylmethyl)-benzenesulfonamide], the IC50 (Homo sapiens, THP-1, 72 h) was under 5 nM.

As for `O=C1NCCc2ccc(-c3ccc(S(=O)(=O)NCc4ccncc4)cc3)cc21` [Example 56, 4-(1-oxo-1,2,3,4-tetrahydroisoquinolin-7-yl)-N-(pyridin-4-ylmethyl)-benzenesulfonamide], the IC50 (Homo sapiens, THP-1, 72 h) fell in the range of 5 to 100 nM.

`CC1CCN(c2ccc(S(=O)(=O)NCc3ccncc3)cc2)C1` (centres unmarked) [Example 28, 4-(3-methylpyrrolidin-1-yl)-N-(pyridin-4-ylmethyl)-benzenesulfonamide]: the IC50 (Homo sapiens, THP-1, 72 h) is 5 to 100 nM.

The compound `O=S(=O)(NCc1ccncc1)c1ccc(C2=CCCC2)cc1` [Example 1, 4-(Cyclopent-1-en-1-yl)-N-(pyridin-4-ylmethyl)benzenesulfonamide] showed an IC50 (Homo sapiens, THP-1, 72 h) of 5 to 100 nM.

`O=S(=O)(NCc1ccncc1)c1ccc(-c2ccc3ocnc3c2)cc1` [Example 48, 4-(1,3-benzoxazol-5-yl)-N-[(pyridin-4-yl)methyl]benzene-1-sulfonamide] had an IC50 (Homo sapiens, THP-1, 72 h) of under 5 nM.

For `O=S(=O)(NCc1ccncc1)c1ccc(-c2ccncc2)cc1` [Example 38, 4-(pyridin-4-yl)-N-(pyridin-4-ylmethyl)benzenesulfonamide], the IC50 (Homo sapiens, THP-1, 72 h) fell in the range of 5 to 100 nM.

The compound `CN1CC=C(c2ccc(S(=O)(=O)NCc3ccncc3)cc2)CC1` [Example 13, 4-(1-methyl-1,2,3,6-tetrahydropyridin-4-yl)-N-(pyridin-4-ylmethyl)-benzenesulfonamide] had an IC50 (Homo sapiens, THP-1, 72 h) of 100 to 500 nM.

In turn, `Cc1nc2cc(-c3ccc(S(=O)(=O)NCc4ccncc4)cc3)ccc2s1` [49 (a), 4-(2-methyl-benzo[d]thiazol-5-yl)-N-(pyridin-4-ylmethyl)-benzenesulfonamide] showed an IC50 (72 hr) of under 5 nM.

Take `O=S(=O)(NCc1ccncc1)c1ccc(C2CCOC2)cc1` (centres unmarked) [Example 19, N-(pyridin-4-ylmethyl)-4-(tetrahydrofuran-3-yl)-benzenesulfonamide]: the IC50 (Homo sapiens, THP-1, 72 h) lay in the range of 5 to 100 nM.

For the compound `O=S(=O)(NCc1ccncc1)c1ccc(N2CCCCC2)cc1` [Example 22, 4-(piperidin-1-yl)-N-(pyridin-4-ylmethyl)-benzenesulfonamide], the IC50 (Homo sapiens, THP-1, 72 h) fell in the range of 5 to 100 nM.

The compound `Cc1n[nH]c2cc(-c3ccc(S(=O)(=O)NCc4ccncc4)cc3)ccc12` [Example 59, 4-(3-methyl-1H-indazol-6-yl)-N-(pyridin-4-ylmethyl)-benzenesulfonamide] showed an IC50 (Homo sapiens, THP-1, 72 h) of under 5 nM.

On to `O=S(=O)(NCc1ccncc1)c1ccc(N2CCOCC2)cc1` [Example 24, 4-morpholino-N-(pyridin-4-ylmethyl)benzenesulfonamide], for which the IC50 (Homo sapiens, THP-1, 72 h) was 100 to 500 nM.

`O=S(=O)(NCc1ccncc1)c1ccc(C2CCC(F)(F)CC2)cc1` [Example 15, 4-(4,4-difluorocyclohexyl)-N-(pyridin-4-ylmethyl)-benzenesulfonamide] registered an IC50 (Homo sapiens, THP-1, 72 h) of under 5 nM.

The compound `O=S(=O)(NCc1ccncc1)c1ccc(N2CCC3(CC2)CC3)cc1` [Example 35, N-(pyridin-4-ylmethyl)-4-(6-azaspiro[2.5]octan-6-yl)-benzenesulfonamide] came in with an IC50 (Homo sapiens, THP-1, 72 h) of under 5 nM.

`Cc1ccc(-c2ccc(S(=O)(=O)NCc3ccncc3)cc2)nc1` [Example 42, 4-(5-methylpyridin-2-yl)-N-(pyridin-4-ylmethyl)-benzenesulfonamide] yielded an IC50 (Homo sapiens, THP-1, 72 h) of under 5 nM.

As for `O=S(=O)(NCc1ccncc1)c1ccc(OCC2CCCO2)cc1` (centres unmarked) [Example 11, N-(pyridin-4-ylmethyl)-4-((tetrahydrofuran-2-yl)methoxy)benzenesulfonamide], for the setting “Homo sapiens, THP-1, 72 h”, the IC50 was under 5 nM.

`O=S(=O)(NCc1ccncc1)c1ccc(C2CCOCC2)cc1` [Example 16, N-(pyridin-4-ylmethyl)-4-(tetrahydro-2H-pyran-4-yl)-benzenesulfonamide]: the IC50 (Homo sapiens, THP-1, 72 h) was under 5 nM.

As for `O=S(=O)(NCc1ccnc(F)c1)c1ccc(C2CCCCC2)cc1` [Example 8, 4-cyclohexyl-N-((2-fluoropyridin-4-yl)methyl)benzenesulfonamide], the IC50 (Homo sapiens, THP-1, 72 h) was under 5 nM.

For `O=S(=O)(NCc1ccncc1)c1ccc(C2=CCOCC2)cc1` [Example 12, 4-(3,6-dihydro-2H-pyran-4-yl)-N-(pyridin-4-ylmethyl)-benzenesulfonamide], the IC50 (Homo sapiens, THP-1, 72 h) was 5 to 100 nM.

Under “Homo sapiens, THP-1, 72 h”, `O=S(=O)(NCc1ccncc1)c1ccc(N2CC3(C2)CC(F)(F)C3)cc1` [Example 34, 4-(6,6-difluoro-2-azaspiro[3.3]heptan-2-yl)-N-(pyridin-4-ylmethyl)-benzenesulfonamide] showed an IC50 of 5 to 100 nM.

Compound `O=c1[nH]c2cc(-c3ccc(S(=O)(=O)NCc4ccncc4)cc3)ccc2o1` [Example 61, 4-(2-oxo-2,3-dihydro-benzo[d]oxazol-5-yl)-N-(pyridin-4-ylmethyl)-benzenesulfonamide] displayed an IC50 (Homo sapiens, THP-1, 72 h) of 5 to 100 nM.

Regarding `O=S(=O)(NCc1ccncc1)c1ccc(N2CC3(CCC3)C2)cc1` [Example 33, N-(pyridin-4-ylmethyl)-4-(2-azaspiro[3.3]heptan-2-yl)benzenesulfonamide], the IC50 (Homo sapiens, THP-1, 72 h) fell in the range of 5 to 100 nM.

In the case of `CC1(C)CCC(c2ccc(S(=O)(=O)NCc3ccncc3)cc2)CC1` [Example 20, 4-(4,4-dimethyl-cyclohexyl)-N-(pyridin-4-ylmethyl) benzenesulfonamide], the IC50 (Homo sapiens, THP-1, 72 h) was under 5 nM.

With `O=S(=O)(NCc1ccncc1)c1ccc(N2CCCC2)cc1` [Example 25, N-(pyridin-4-ylmethyl)-4-(pyrrolidin-1-yl)benzenesulfonamide], the IC50 (Homo sapiens, THP-1, 72 h) was in the range of 5 to 100 nM.

Under “Homo sapiens, THP-1, 72 h”, `O=S(=O)(NCc1ccncc1)c1ccc(-c2ccc3ncoc3c2)cc1` [Example 45, 4-(benzo[d]oxazol-6-yl)-N-(pyridin-4-ylmethyl)-benzenesulfonamide] yielded an IC50 of under 5 nM.

Compound `O=S(=O)(NCc1ccncc1)c1ccc(-c2ccc3ncsc3c2)cc1` [Example 46, 4-(benzo[d]thiazol-6-yl)-N-(pyridin-4-ylmethyl)-benzenesulfonamide] registered a 50% inhibitory concentration (IC50) (Homo sapiens, THP-1, 72 h) of under 5 nM.

Where the note is “Homo sapiens, THP-1, 72 h”, `O=c1[nH]c2ccc(-c3ccc(S(=O)(=O)NCc4ccncc4)cc3)cc2o1` [Example 62, 4-(2-oxo-2,3-dihydro-benzo[d]oxazol-6-yl)-N-(pyridin-4-ylmethyl)-benzenesulfonamide] had an IC50 of 100 to 500 nM.

In the case of `CC(=O)N1CCC(c2ccc(S(=O)(=O)NCc3ccncc3)cc2)C1` (centres unmarked) [Example 21, 4-(1-acetylpyrrolidin-3-yl)-N-(pyridin-4-ylmethyl)-benzenesulfonamide], the IC50 (Homo sapiens, THP-1, 72 h) is over 500 nM.

Compound `CN1CCN(c2ccc(S(=O)(=O)NCc3ccncc3)cc2)CC1` [Example 3, 4-(4-methylpiperazin-1-yl)-N-(pyridin-4-ylmethyl)benzenesulfonamide] had an IC50 (Homo sapiens, THP-1, 72 h) of 100 to 500 nM.

For `O=S(=O)(NCc1ccncc1)c1ccc(N2CCCC(F)(F)C2)cc1` [Example 31, 4-(3,3-difluoropiperidin-1-yl)-N-(pyridin-4-ylmethyl)-benzenesulfonamide], for the setting “72 hr”, the IC50 is under 5 nM.

With `O=S1(=O)CCC(c2ccc(S(=O)(=O)NCc3ccncc3)cc2)CC1` [Example 18, 4-(1,1-dioxotetrahydro-2H-thiopyran-4-yl)-N-(pyridin-4-ylmethyl)-benzenesulfonamide], the IC50 (Homo sapiens, THP-1, 72 h) is over 500 nM.
